The nature of this series: Thermal stability by HPLC analysis, samples heated in oven at 90° C. The format is physicochemical. The note with it: for HPLC peak area: 90° C. oven; for change in peak area (degree of decomposition): after 24 hours versus initial peak area. As for the experimental part:
The thermal stability tests were conducted by heating the compound samples of Formulas 3 and 7 in an oven maintained at 90° C. and measuring the degree of decomposition of each sample.

Here are results for two molecules from patent publication US11518735B2 (AE KYUNG INDUSTRIAL CO., LTD, priority 2017, dated 2022).

Molecules are shown by their SMILES. “Also recorded” adds a separate entry of the source.

In the case of `CCCCCCCCCC/C=C/C(CC(=O)NCCCCCCCCCCCCCCCCCC)C(=O)O` (stereo not shown) [Formula 3], the HPLC peak area is 22760548 (0 hour), 22871539 (1 hour) and 22896857 (24 hours). Also, the “change in peak area (degree of decomposition)” value (90° C.) is “little change in the peak area ratio”. The “high-temperature stability compared with Formula 7” value (HPLC, 90° C.) was “better high-temperature stability; also recorded: improved stability”.
Regarding `CCCCCCCC/C=C/CCCCCCCCNC(=O)CC(/C=C/CCCCCCCCCCCCCCCC)C(=O)O` (stereo not shown) [Formula 7, reference compound], the HPLC peak area runs as follows: (0 hour) 21694395; (3 hours) 10982003; (6 hours) 11400622; (24 hours) 7124834. The “change in peak area (degree of decomposition)” value (90° C.) is recorded as “nearly one third of the initial peak area”.
